Experimental findings from patent US20250026752A1, “POSITIVE ALLOSTERIC MODULATORS OF THE MUSCARINIC ACETYLCHOLINE RECEPTOR M4” (Vanderbilt University, priority 2021, published 2025) are described below.

Structures are written as SMILES.

As a reminder, the Emax is the size of the effect at its maximum, as opposed to the concentration needed. The term EC50 denotes the concentration needed to bring the measured effect to its halfway point.

The test concerns the target T1, human mAChR M4 (Homo sapiens, UniProt P08173).
T1 construct: expressed in transfected cells; host or cells: CHO-K1 (ATCC), stably expressing hM4 and Gqi5
T1 sequence (P08173 1-479): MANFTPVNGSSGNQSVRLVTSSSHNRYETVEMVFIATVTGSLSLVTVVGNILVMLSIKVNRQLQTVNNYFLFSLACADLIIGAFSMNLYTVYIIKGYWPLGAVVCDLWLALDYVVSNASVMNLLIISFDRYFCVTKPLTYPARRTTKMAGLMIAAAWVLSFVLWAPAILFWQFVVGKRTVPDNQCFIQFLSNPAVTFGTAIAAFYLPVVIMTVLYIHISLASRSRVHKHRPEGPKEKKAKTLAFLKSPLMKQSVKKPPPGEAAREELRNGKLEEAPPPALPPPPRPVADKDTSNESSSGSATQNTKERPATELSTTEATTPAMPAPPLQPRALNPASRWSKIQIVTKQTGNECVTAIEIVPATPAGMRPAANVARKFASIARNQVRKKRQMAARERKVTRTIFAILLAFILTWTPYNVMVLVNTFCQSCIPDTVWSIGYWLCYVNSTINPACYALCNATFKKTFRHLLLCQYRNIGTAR
The test is described as follows: mAChR M4 cell-based functional assay: calcium flux (Fluo-4, FDSS), positive allosteric modulator activity on the EC20 acetylcholine response, hM4-Gqi5 CHO-K1 cells. Particulars: for Emax at 30 µM: CHO-K1, human M4, % ACh maximum at 30 μM; for EC50: human M4, PAM activity on EC20 acetylcholine response, calcium flux, read-out: Human M4 EC50. How it is done: Human M4 cDNA, along with the chimeric G protein Gqi5, were transfected into Chinese hamster ovary (CHO-K1) cells purchased from the American Type Culture Collection using commercially available Lipofectamine 2000 transfection reagent (Dalby, B. et al., Methods (2004) 33(2), 95-103). hM4-Gqi5 cells were grown in Ham's F-12 medium containing 10% heat-inactivated fetal bovine serum (FBS), 20 mM […], 50 μg/mL G418 sulfate (CAS #108321-42-2), and 500 μg/mL Hygromycin B. rM4-Gqi5 cells were grown in DMEM containing 10% heat-inactivated FBS, 20 mM HEPES, 400 μg/mL G418 sulfate, and 500 μg/mL Hygromycin B.
For high throughput measurement of agonist-evoked increases in intracellular calcium, CHO-K1 cells stably expressing muscarinic receptors were plated in growth medium lacking G418 sulfate and hygromycin at 15,000 cells/20 μL/well in Greiner 384-well black-walled, tissue culture (TC)-treated, clear-bottom plates (VWR). Cells were incubated overnight at 37° C. and 5% C02. The next day, cells were washed using an ELX 405 (BioTek) with assay buffer; the final volume was then aspirated to 20 μL. Next, 20 μL of a 2.3 μM stock of Fluo-4/acetoxymethyl ester (Invitrogen, Carlsbad, CA), prepared as a 2.3 mM stock in DMSO and mixed in a 1:1 ratio with 10% (w/v) Pluronic F-127 and diluted in assay buffer, was added to the wells and the cell plates were incubated for 50 minutes at 37° C. and 5% C02. Dye was removed by washing with the ELX 405 and the final volume was aspirated to 20 μL. Compound master plates were formatted in an 11 point concentration-response curve (CRC) format (1:3 dilutions) in 100% DMSO with a starting concentration of 10 mM using a BRAVO liquid handler (Agilent). Test compound CRCs were then transferred to daughter plates (240 nL) using the Echo acoustic plate reformatter (Labcyte, Sunnyvale, CA) and then diluted into assay buffer (40 μL) to a 2× stock using a Thermo Fisher Combi (Thermo Fisher Scientific, Waltham, MA).
Calcium flux was measured using the Functional Drug Screening System (FDSS) 6000 or 7000 (Hamamatsu Corporation, Tokyo, Japan) as an increase in the fluorescent static ratio. Compounds were applied to cells (20 μL, 2×) using the automated system of the FDSS at 2-4 seconds into the protocol and the data were collected at 1 Hz. At 144 seconds, 10 μL of an EC20 concentration of the muscarinic receptor agonist acetylcholine was added (5×), followed by the addition of 12 μL of an EC80 concentration of acetylcholine at the 230 second time point (5×). Agonist activity was analyzed as a concentration-dependent increase in calcium mobilization upon compound addition. Positive allosteric modulator activity was analyzed as a concentration-dependent increase in the EC20 acetylcholine response. With the acetylcholine EC20 set as baseline, the test compound EC50 is determined as the concentration that produces an increase above baseline of 50% of the maximum increase in acetylcholine response elicted by the test compound. Antagonist activity was analyzed as a concentration-dependent decrease in the ECso acetylcholine response. Concentration-response curves were generated using a four-parameter logistical equation in XLFit curve fitting software (IDBS, Bridgewater, NJ) for Excel (Microsoft, Redmond, WA) or Prism (GraphPad Software, Inc., San Diego, CA).
Compounds were synthesized as described above. Activity (EC50 and Emax) was determined in the mAChR M4 cell-based functional assay as described above and the data are shown in Table 4. The compound numbers correspond to the compound numbers used in Examples 1-33 and Tables 1, 2, and 3.

Turning to `Cc1ccc2nc(NC3CCOC3)nc(N3CCc4ncc(C(F)(F)F)cc4C3)c2c1` (stereo not shown) [Compound 207, 6-methyl-N-tetrahydrofuran-3-yl-4-[3-(trifluoromethyl)-7,8-dihydro-5H-1,6-naphthyridin-6-yl]quinazolin-2-amine], the Emax at 30 µM came to 75% and the EC50 is 440 nM.

As for `Cc1ccc(-c2cnc3c(c2)CN(c2ncnc4cc(F)c(F)cc24)CC3)cn1` [Compound 53, 6,7-difluoro-4-[3-(6-methyl-3-pyridyl)-7,8-dihydro-5H-1,6-naphthyridin-6-yl]quinazoline], the Emax at 30 µM is 84% and the EC50 came out at 130 nM.

As for `CC1CN(c2ncnc3ccc(F)cc23)Cc2cc(Nc3ncnc4ccc(F)cc34)cnc21` (stereo not shown) [Compound 237, 6-fluoro-N-(6-(6-fluoroquinazolin-4-yl)-8-methyl-5,6,7,8-tetrahydro-1,6-naphthyridin-3-yl)quinazolin-4-amine], the Emax at 30 µM came out at 55% and the EC50 was 1400 nM.

With `CN(C)c1ccc(-c2cnc3c(c2)CN(c2ncnc4ccc(Cl)cc24)CC3)cn1` [Compound 41, 5-[6-(6-chloroquinazolin-4-yl)-7,8-dihydro-5H-1,6-naphthyridin-3-yl]-N,N-dimethyl-pyridin-2-amine], the Emax at 30 µM was determined as 74% and the EC50 is 430 nM.

`Cc1ccc2ncnc(N3CCc4ncc(-c5cnc(F)cc5C)cc4C3)c2c1` [Compound 309, 4-(3-(6-fluoro-4-methylpyridin-3-yl)-7,8-dihydro-1,6-naphthyridin-6(5H)-yl)-6-methylquinazoline]: the Emax at 30 µM was determined as 83% and the EC50 was found to be 40 nM.

As for `Fc1ccc2nc(C(F)(F)F)nc(N3CCc4ncc(-c5ccn(C6CC6)n5)cc4C3)c2c1` [Compound 65, 4-[3-(1-cyclopropylpyrazol-3-yl)-7,8-dihydro-5H-1,6-naphthyridin-6-yl]-6-fluoro-2-(trifluoromethyl)quinazoline], the Emax at 30 µM turned out to be 52% and the EC50 worked out at 1380 nM.

In the case of `Cc1nn(C)cc1-c1cnc2c(c1)CN(c1nc(-c3cn(C)nc3C)nc3ccc(Cl)cc13)CC2` [Compound 188, 6-chloro-2-(1,3-dimethylpyrazol-4-yl)-4-[3-(1,3-dimethylpyrazol-4-yl)-7,8-dihydro-5H-1,6-naphthyridin-6-yl]quinazoline], the Emax at 30 µM was found to be 68% and the concentration giving a half-maximal response (EC50) came to 1910 nM.

Take `CC1Cc2ncc(C(F)(F)F)cc2CN1c1ncnc2ccc(F)cc12` (stereo not shown) [Compound 155, 6-fluoro-4-[7-methyl-3-(trifluoromethyl)-7,8-dihydro-5H-1,6-naphthyridin-6-yl]quinazoline]: the Emax at 30 µM was 98% and the EC50 is 60 nM.

Turning to `Cc1nc(N2CCc3ncc(-c4cnc(C)s4)cc3C2)c2cc(C(F)(F)F)ccc2n1` [Compound 56, 2-methyl-5-[6-[2-methyl-6-(trifluoromethyl)quinazolin-4-yl]-7,8-dihydro-5H-1,6-naphthyridin-3-yl]thiazole], the Emax at 30 µM worked out at 45% and the EC50 was 1930 nM.

As to `Fc1ccc2nc(C(F)(F)F)nc(N3CCc4ncc(N5CCOc6ncccc65)cc4C3)c2c1` [Compound 112, 1-[6-[6-fluoro-2-(trifluoromethyl)quinazolin-4-yl]-7,8-dihydro-5H-1,6-naphthyridin-3-yl]-2,3-dihydropyrido[2,3-b][1,4]oxazine], the Emax at 30 µM worked out at 92% and the EC50 was 380 nM.

Turning to `Clc1ccc2nc(Cl)nc(N3CCc4ncc(N5CCCn6nccc65)cc4C3)c2c1` [Compound 89, 2,6-dichloro-4-[3-(6,7-dihydro-5H-pyrazolo[1,5-a]pyrimidin-4-yl)-7,8-dihydro-5H-1,6-naphthyridin-6-yl]quinazoline], the Emax at 30 µM was 109% and the EC50 is 250 nM.

On to `Fc1ccc2ncnc(N3CCc4ncc(N5CCc6ncccc65)cc4C3)c2c1` [Compound 319, 4-(3-(2,3-dihydro-1H-pyrrolo[3,2-b]pyridin-1-yl)-7,8-dihydro-1,6-naphthyridin-6(5H)-yl)-6-fluoroquinazoline], for which the maximal response (Emax) at 30 µM amounted to 74% and the EC50 turned out to be 30 nM.

In the case of `Fc1ccc2nc(Cl)nc(N3CCc4ncc(N5CCCn6nccc65)cc4C3)c2c1` [Compound 87, 2-chloro-4-[3-(6,7-dihydro-5H-pyrazolo[1,5-a]pyrimidin-4-yl)-7,8-dihydro-5H-1,6-naphthyridin-6-yl]-6-fluoro-quinazoline], the Emax at 30 µM was 110% and the EC50 turned out to be 190 nM.

For `Cc1ncc(-c2cnc3c(c2)CN(c2ncnc4cc(F)c(F)cc24)CC3)s1` [Compound 52, 5-[6-(6,7-difluoroquinazolin-4-yl)-7,8-dihydro-5H-1,6-naphthyridin-3-yl]-2-methyl-thiazole], the Emax at 30 µM stood at 87% and the EC50 turned out to be 80 nM.

With `Cc1nc(N2CCc3ncc(-c4ccnn4C4COC4)cc3C2)c2cc(Cl)ccc2n1` [Compound 255, 6-chloro-2-methyl-4-(3-(1-(oxetan-3-yl)-1H-pyrazol-5-yl)-7,8-dihydro-1,6-naphthyridin-6(5H)-yl)quinazoline], the Emax at 30 µM stood at 76% and the EC50 is 610 nM.

`Cc1nc(N2CCc3ncc(C(F)(F)F)cc3C2)c2c(Cl)cccc2n1` [Compound 132, 5-chloro-2-methyl-4-[3-(trifluoromethyl)-7,8-dihydro-5H-1,6-naphthyridin-6-yl]quinazoline]: the Emax at 30 µM came out at 32% and the EC50 is greater than 10000 nM.

Take `CC(C)(C)c1cc2n(n1)CCCN2c1cnc2c(c1)CN(c1ncnc3ccc(F)cc13)CC2` [Compound 279, 4-(3-(2-(tert-butyl)-6,7-dihydropyrazolo[1,5-a]pyrimidin-4(5H)-yl)-7,8-dihydro-1,6-naphthyridin-6(5H)-yl)-6-fluoroquinazoline]: the Emax at 30 µM was 72% and the EC50 stood at 810 nM.

On to `Cn1nccc1Nc1cnc2c(c1)CN(c1nc(N3CCCC3)nc3ccc(F)cc13)CC2` [Compound 210, 6-(6-fluoro-2-pyrrolidin-1-yl-quinazolin-4-yl)-N-(2-methylpyrazol-3-yl)-7,8-dihydro-5H-1,6-naphthyridin-3-amine], for which the Emax at 30 µM was 81% and the EC50 turned out to be 240 nM.

Consider `Cc1nc(N2CCc3ncc(-c4cn(C)nc4C)cc3C2)c2cc(Cl)ccc2n1` [Compound 7, 6-chloro-4-[3-(1,3-dimethylpyrazol-4-yl)-7,8-dihydro-5H-1,6-naphthyridin-6-yl]-2-methyl-quinazoline], for which the Emax at 30 µM came to 93% and the EC50 was 250 nM.

With `Cc1nn(C)cc1-c1cnc2c(c1)CN(c1ncnc3cc(F)c(F)cc13)CC2` [Compound 8, 4-[3-(1,3-dimethylpyrazol-4-yl)-7,8-dihydro-5H-1,6-naphthyridin-6-yl]-6,7-difluoro-quinazoline], the Emax at 30 µM worked out at 87% and the EC50 stood at 60 nM.
